In publication PMC4405350, “From Broad-Spectrum Biocides to Quorum Sensing Disruptors and Mussel Repellents: Antifouling Profile of Alkyl Triphenylphosphonium Salts” (PLoS ONE, 2015):

Assays:
Type in all cases: cell-based
[1] = tested on: Cellulophaga lytica CECT 5014; assay: Marine bacteria growth inhibition (broth microdilution, OD625); settings: growth inhibition, 24 h, 30 °C, three replicates; read-out: IC50 C. lytica
Protocol: (§1) All the biological assays were run by triplicate. […] For the active products, serial dilutions were performed to calculate the half-maximal inhibitory concentrations (IC50) or the minimal inhibitory concentrations (MIC). Unless otherwise stated, the test concentrations were 100, 50, 25, 10, 5, 2.5, 1, 0.5 and 0.1 μM. Dose-response curves were adjusted with GraphPad Prism 5 software using a four-parameter non-linear regression model.
(§2) Growth inhibition was assessed in Marine Broth (Conda) according to CLSI guidelines for broth microdilution susceptibility testing. The incubation time was 24 h and the incubation temperature was 30 °C.

Cobetia marina CECT 4278 = assay: as above; settings: growth inhibition, 24 h, 30 °C, three replicates; read-out: IC50 C. marina
Protocol: as §1, §2

[2] = tested on: Pseudoalteromonas atlantica CECT 579; assay: as above; settings: growth inhibition, 24 h, 30 °C, three replicates; read-out: IC50 P. atlantica
Protocol: as §1, §2

[3] = tested on: Shewanella algae CECT 5021; assay: as above; settings: growth inhibition, 24 h, 30 °C, three replicates; read-out: IC50 S. algae
Protocol: as §1, §2

[4] = tested on: Vibrio alginolyticus CECT 521; assay: as above; settings: growth inhibition, 24 h, 30 °C, three replicates; read-out: IC50 V. alginolyticus
Protocol: as §1, §2

[5] = tested on: Vibrio anguillarum CECT 4347; assay: as above; settings: growth inhibition, 24 h, 30 °C, three replicates; read-out: IC50 V. anguillarum
Protocol: as §1, §2

Alternaria sp. = assay: Marine-derived fungi growth inhibition (OD405); settings: growth inhibition, 5 days, 26 °C; read-out: IC50 Alternaria sp.
Protocol: as §1
(§3) Three strains of marine-derived fungi were kindly provided by Dr. Á. Trigos (University of Veracruz, Mexico). The strains were isolated from reef organisms collected from the Veracruz Reef System and identified as Aspergillus sp., Fusarium sp. and Alternaria sp..
(§4) Fungal strains were cultured in Potato-Dextrose Agar (PDA) supplemented with filtered seawater (FSW) (50% v/v) at 26 °C for 5 days prior to experiments. […] Briefly, fungal inocula were prepared by addition of 5 ml of sterile saline solution to the cultures. Gently swabbing released conidia. […] The plates were incubated for 5 days at 26 °C. The calculation of the half-maximal inhibitory concentrations (IC50) was performed using OD405 as endpoint.

Aspergillus sp. = assay: Marine-derived fungi growth inhibition (OD405); settings: growth inhibition, 5 days, 26 °C; read-out: IC50 Aspergillus sp.
Protocol: as §1, §3, §4

Fusarium sp. = assay: Marine-derived fungi growth inhibition (OD405); settings: 5 days, 26 °C
Protocol: All the biological assays were run by triplicate.
as §3, §4

Amphora sp. = assay: Benthic diatom growth inhibition (chlorophyll-a); settings: growth, 5 days, chlorophyll-a; read-out: IC50 Amphora sp.
Protocol: as §1
(§5) Five strains of benthic diatoms, Nitszchia sp. […] The Nitzschia and Navicula strains were purchased from the Spanish Bank of Algae (Marine Biotechnology Center, University of Las Palmas de Gran Canaria). The other three strains were kindly provided by Dr. G. Courtois (University of Las Palmas de Gran Canaria). Diatoms were cultured at 19±1 °C in Erlenmeyer flaks (250 ml) containing 150 ml of Guillard’s F/2 medium, and subjected to a photoperiod of 18:6. Tests were run in 48-well plates. Inocula were prepared by adjusting diatom concentration to 2–4 × 10^6 cells ml^-1 using a Neubauer chamber. Test products were dissolved in F/2 medium (500 μl) to which diatom inocula (500 μl) were added. Thus, the final assay volume was 1 ml and the starting cell densities were ca. 1–2 x 10^6 diatoms ml^-1. Plates were incubated under the abovementioned conditions for 5 days and then chlorophyll-a (Chla) was quantified.
(§6) In order to extract Chla, the content of each well was transferred to a microcentrifuge tube and centrifuged at 10,000 rpm for 10 min. The supernatants were discarded and 200 μl of DMSO were added to the pellets. The tubes were incubated at 65 °C for 2 h in total darkness and vortexed every 30 min. Then, the content of each tube was transferred to a 96-well plate and the amount of Chla was determined spectrophotometrically. Path length correction factor for the DMSO extracts was determined.

Cylindrotheca sp. = assay: Benthic diatom growth inhibition (chlorophyll-a); settings: growth, 5 days, chlorophyll-a; read-out: IC50 Cylindrotheca sp.
Protocol: as §1, §5, §6

[6] = tested on: Navicula cf. salinicola BEA 0055; assay: Benthic diatom growth inhibition (chlorophyll-a); settings: growth, 5 days, chlorophyll-a; read-out: IC50 Navicula cf. salinicola
Protocol: as §1, §5, §6

Nitzschia sp. = assay: Benthic diatom growth inhibition (chlorophyll-a); settings: growth, 5 days, chlorophyll-a; read-out: IC50 Nitzschia sp.
Protocol: as §1, §5, §6

[7] = tested on: Phaeodactylum tricornutum; assay: Benthic diatom growth inhibition (chlorophyll-a); settings: growth, 5 days, chlorophyll-a; read-out: IC50 P. tricornutum
Protocol: as §1, §5, §6

[8] = tested on: Gayralia oxysperma spores; assay: Macroalgal spore germination inhibition; settings: 6 days, 19±1 °C
Protocol: as §1
To evaluate the effect of the phosphonium salts on the germination of macroalgal spores, Gayralia oxysperma (Kützing) K.L.Vinogradova was selected as model organism. G. oxysperma (Ulotrichales, Chlorophyta) is a cosmopolitan member of the Ulvophyceae. Unlike Ulva species, which produce biflagellate male and female gametes, as well as quadriflagellate spores, G. oxysperma only produces biflagellate spores. This is an advantage as bioassays can be conducted straightforwardly without the need to distinguish between gamete-producing and zoospore-producing plants. […] Fresh fertile fragments were selected and placed in Petri dishes. Spores were then released in Von Stosch Solution (VSS) by the osmotic method. Bioassays were conducted in flat-bottom 96-well plates as described by Chambers and co-workers, with slight modifications. Each well was filled with 50 μl of the appropriate dilution of the products in VSS to which 50 μl of spore inoculum (ca. 2 x 10^5 spores ml^-1) were added. Plates were incubated at 19±1 °C for 6 days. After the incubation time, the bottom of each well was examined for the presence of germinated spores with an inverted microscope. A spore was considered as germinated when the germ tube was visible. The MIC was recorded as the lowest concentration inhibiting spore germination.

bis-(tris-n-butyltin)oxide [TBTO, reference compound]
IC50 [1]: 0.5 µM
IC50 (Cobetia marina CECT 4278): 34.2 µM
IC50 [2]: 46.6 µM
IC50 [3]: 6.4 µM
IC50 [4]: 38.6 µM
IC50 [5]: 27.5 µM
IC50 (Alternaria sp.): 0.6 µM
IC50 (Aspergillus sp.): 3 µM
IC50 (Fusarium sp.): 6.7 µM
IC50 (Amphora sp.): 5.7 µM
IC50 (Cylindrotheca sp.): 0.4 µM
IC50 [6]: 6.3 µM
IC50 (Nitzschia sp.): 2.8 µM
IC50 [7]: 1.7 µM
MIC G. oxysperma (lowest concentration inhibiting spore germination) [8]: 5 µM
